From EP0301861A1, “Cell proliferation inhibitors” (Takeda Chemical Industries, Ltd., priority 1987, dated 1989)
In brackets after ≈: the same amount, converted by molar mass.

Experiments:
[1] = system: human umbilical venous endothelial cells; assay: Inhibition of proliferation of human umbilical venous endothelial cells (MTT); assay type: cell-based; conditions: Endothelial cell, 72 h, rFGF 2 ng/ml, 3 days of incubation, OD₅₉₀, read-out: IC₅₀
Description: Experiment 3 [Evaluation of inhibition of proliferation of human umbilical venous endothelial cells]
The human vascular endothelial cells were obtained by subculture of the cells, which had been obtained from human umbilical vein by perfusion with tripsin solution, in the culture medium which had been prepared by addition of 2.5% bovine fetal serum and 2.0 ng/ml of human recombinant fibroblast growth factor (abbreviated as rFGF hereinafter; prepared in Biotechnology Institute of our company) to GIT medium (Daigo Eiyou Kagaku).
A hundred µl of the suspension of 2 x 10³ human vascular endothelial cells was introduced to a 96-well culture plate (Nunc, 1-67008) and incubated in a gas-controlled thermostat. On the next day rFGF and 100 µl of a medium containing different concentrations of the test substance were added, so that the final concentration of rFGF might be 2 ng/ml. The test substance was dissolved in dimethylsufoxide (DMSO hereinafter) solution, and the resultant solution was diluted so that the final DMSO concentration might be 0.25% or less. After 3 days of incubation, the culture medium containing the test substance was aspirated off, 100 µl of 1 mg/ml MTT solution (3-(4,5-dimethyl-2-thiazolyl)-2,5-diphenyl-2H-tetrazolium bromide dissolved in the culture medium) was added, and the mixture was kept warm for 4 hours. Then 100 µl of 10% SDS solution (aqueous solution of sodium dodecylsulfate) was added and kept warm for 5 - 6 hours, so that the cells and MTT pigment were solubilized, and the OD₅₉₀ value was determined by spectrophotometer. The OD value of the control sample containing no test substance was taken as 100%, and the endothelial cell growth-inhibitory activity of the test substance was compared on the basis of the IC₅₀ value, the concentration of a compound at which 50% OD value is observed.

[2] = target: T1, 5-lipoxygenase from guinea pig polymorphonuclear leukocytes (Cavia porcellus, UniProt A0A286X958); assay: Inhibition of 5-lipoxygenase; assay type: biochemical; conditions: 10⁻⁵ M; 25µM [1-¹⁴C]arachidonic acid as substrate, 25°C
T1 construct: from guinea pig peritoneal macrophage; from tissue
T1 sequence (A0A286X958 1-674): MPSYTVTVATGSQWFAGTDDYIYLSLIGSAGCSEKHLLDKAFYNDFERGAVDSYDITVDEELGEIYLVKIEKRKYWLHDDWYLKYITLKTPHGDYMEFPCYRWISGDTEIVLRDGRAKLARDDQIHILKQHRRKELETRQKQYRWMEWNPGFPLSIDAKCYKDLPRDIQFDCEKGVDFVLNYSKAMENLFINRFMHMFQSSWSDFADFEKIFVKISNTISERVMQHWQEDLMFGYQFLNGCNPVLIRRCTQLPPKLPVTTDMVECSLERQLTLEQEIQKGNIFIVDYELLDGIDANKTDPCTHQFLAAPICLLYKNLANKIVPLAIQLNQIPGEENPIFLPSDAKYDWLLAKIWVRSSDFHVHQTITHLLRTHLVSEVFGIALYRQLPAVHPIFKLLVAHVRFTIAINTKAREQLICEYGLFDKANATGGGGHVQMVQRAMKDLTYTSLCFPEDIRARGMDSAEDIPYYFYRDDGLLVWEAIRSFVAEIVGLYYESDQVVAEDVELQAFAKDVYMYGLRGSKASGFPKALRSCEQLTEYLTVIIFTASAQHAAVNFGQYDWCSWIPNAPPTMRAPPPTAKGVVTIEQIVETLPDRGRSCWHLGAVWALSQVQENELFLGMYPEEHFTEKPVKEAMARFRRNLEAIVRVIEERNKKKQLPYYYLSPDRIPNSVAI
Description: According to the routine method these ingredients were mixed and compressed by a tableting machine. Experiment 1 [Inhibition (10⁻⁵ M) of 5-lipoxygenase from guinea pig polymorphonuclear leukocytes]
5-Lipoxygenase used was the enzyme preparation prepared from guinea pig […]. For determination of the activity of lypoxygenase 25µM [1-¹⁴C]arachidonic acid (5 x 10⁴ cpm) as the substrate, 50 mM phosphate buffer solution (pH 7.4), 2 mM CaCl₂, 2 mM ATP, and a reaction mixture containing the enzyme (200µl) were used. After preincubation at 25°C for 2 minutes, [1-¹⁴C]arachidonic acid (5 x 10⁴ cpm) was added, and allowed to react at 25°C for 3 minutes; the resultant mixture was made acidic, and arachidonic acid and its metabolites were extracted with ether. Radioactivity of the ether layer was determined by silica gel thin layer chromatography using a mixture of petroleum ether:ethylether:acetic acid (15:85:0.1) as the eluant and the elution was performed at -10°C. After elution, the thin layer plate was subjected to autoradiography, the radioactive fractions were scraped out, and the radioactivity of the product was determined by counting. The agent was added two minutes before the beginning of the reaction.

[3] = system: IL-2-dependent cells (NKC-3); assay: Inhibition of growth of IL-2-dependent cells (NKC-3) (MTT); assay type: cell-based; conditions: NKC-3 cells with IL-2, 37°C for 20 hours, absorbance at 590 nm, read-out: IC₅₀
Description: Experiment 4 [Evaluation of inhibition of growth of IL-2-dependent cells (NKC-3)]
To each well of a 96-well microplate, 50 µl of NKC-3 cells (4 x 10⁵ cells/well), 20 µl of IL-2 solution (0.067 U/ml), and 40 µl of the test substance (DMSO solution) were added, which was incubated at 37°C for 20 hours (culture medium: RPMI1640-20%ECS). To each well 20 µl of MTT solution was added,which was kept at 37°C for 4 hours. Then 100 µl of 10% SDS solution was added to each well, which was kept still at 37°C overnight so that the cells and MTT pigment were solubilized, and the absorbance at 590 nm was measured by spectrophotometer. […] Compound No. IC₅₀ (M) 5 4.1 x 10⁻⁵

Row | Compound | IC50 [1] | Inhibitory activity (%) [2] | IC50 [3]
1 | CC1=C(C)C(=O)C(C(CCCCCCC(=O)NO)c2ccccc2)=C(C)C1=O (stereo not shown) [compound 10] | 25 µg/mL (≈ 65.2 µM) |  | 
2 | CC1=C(C(CCCCCC(=O)NO)c2ccc(F)cc2)C(=O)c2ccccc2C1=O (stereo not shown) [compound 14] | < 0.63 µg/mL | 89.7% | 
3 | CC1=C(C)C(=O)C(C(CCCCCC(=O)NO)c2ccccc2)=C(C)C1=O (stereo not shown) [Compound No.5] | 0.63 µg/mL (≈ 1.71 µM) | 74.6% | 41 µM
4 | COC1=C(OC)C(=O)C(C(CCCCCC(=O)NO)c2ccccc2)=C(C)C1=O (stereo not shown) [compound 16] | 1.25 µg/mL (≈ 3.11 µM) |  | 
5 | CC1=C(C)C(=O)C(C(CCCCCC(=O)NO)c2ccc(C)cc2)=C(C)C1=O (stereo not shown) [compound 7] | 1.25 µg/mL (≈ 3.26 µM) |  | 
6 | CC1=C(C(CCCCC(=O)NO)c2ccccc2)C(=O)c2ccccc2C1=O (stereo not shown) [compound 12] | 0.08 µg/mL (≈ 0.212 µM) |  | 
7 | COc1ccc(C(CCCCC(=O)NO)C2=C(C)C(=O)C(C)=C(C)C2=O)cc1 (stereo not shown) [compound 4] | 0.63 µg/mL (≈ 1.63 µM) |  | 
8 | COC1=C(OC)C(=O)C(C(CCCC(=O)NO)c2ccccc2)=C(C)C1=O (stereo not shown) [compound 17] | 20 µg/mL (≈ 53.6 µM) |  | 
9 | CC1=C(C)C(=O)C(C(CCCCC(=O)NO)c2ccc(F)cc2)=C(C)C1=O (stereo not shown) [compound 3] | 1.25 µg/mL (≈ 3.35 µM) |  | 
10 | CC1=C(C)C(=O)C(C(CCC(=O)NO)c2ccccc2)=C(C)C1=O (stereo not shown) [Compound No.1] | 10 µg/mL (≈ 30.5 µM) |  | 
11 | CC1=C(C(CCCCC(=O)NO)c2cccs2)C(=O)c2ccccc2C1=O (stereo not shown) [Compound No.13] | < 0.08 µg/mL |  | 
12 | CC1=C(C)C(=O)C(C(CCCCC(=O)NO)c2ccccc2)=C(C)C1=O (stereo not shown) [compound 2] | 0.63 µg/mL (≈ 1.77 µM) |  | 
13 | CC1=C(C)C(=O)C(C(CCCCCC(=O)NO)c2ccc(F)cc2)=C(C)C1=O (stereo not shown) [Compound No.6, 7-(4-fluorophenyl)-7-(3,5,6-trimethyl-1,4-benzoquinon-2-yl)-heptanohydroxamic acid] | 1.25 µg/mL (≈ 3.23 µM) | 79.3% | 
14 | CC1=C(C(CCCCCCC(=O)NO)c2ccccc2)C(=O)c2ccccc2C1=O (stereo not shown) [compound 15] | < 0.63 µg/mL |  | 
15 | COc1ccc(C(CCCCCC(=O)NO)C2=C(C)C(=O)C(C)=C(C)C2=O)cc1 (stereo not shown) [Compound No.8, 7-(4-methoxyphenyl)-7-(3,5,6-trimethyl-1,4-benzoquinon-2-yl)-heptanohydroxamic acid] | 0.63 µg/mL (≈ 1.58 µM) | 83.8% | 
16 | CC1=C(C(CCCC(=O)NO)c2ccccc2)C(=O)c2ccccc2C1=O (stereo not shown) [compound 11] | 5 µg/mL (≈ 13.8 µM) |  | 
17 | CC1=C(C)C(=O)C(C(CCCCCC(=O)NO)c2ccc(Cl)cc2)=C(C)C1=O (stereo not shown) [compound 9] | 1.25 µg/mL (≈ 3.09 µM) |  | 
